Measurements published in US8247211B2, “Glycopeptide antibiotics” (American Cyanamid Company, priority 2001, dated 2012).

Key:
[1] = test system: Staphylococcus aureus-SMITH (GC 4543); experiment: Acute lethal infection in mice (ED50); format: in vivo; details: female CD-1 mice, intraperitoneal challenge, intravenous dose 30 min. after infection, 7 day survival ratios
Summary of the method: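 Bacteria suspended in Trypticase Soy Broth or hog gastric mucin are injected intraperitoneally into female CD-1 mice at a dose killing untreated animals within 24-48 hr. Thirty minutes later, test agent is administered intravenously. Survival at day 7 is scored.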

[2] = Anatomic pathology (heart and kidney histopathology) in mice; format: in vivo, CD-1 mice; details: 20 mg/kg intravenously daily for 9 days, microscopic histopathology on day 10
Method: 20-day-old CD-1 mice were divided into a vehicle control group (5 mice) and a treatment group (5 mice). Samples of glycopeptide antibiotics were administered at 20 mg/kg intravenously daily for 9 days.
Samples of tissues from necropsied mice were formalin-fixed, paraffin-embedded, sectioned, stained with hematoxylin and eosin, and examined microscopically. Histopathologic findings were recorded. These findings were subjectively graded on a scale corresponding to slight, mild, moderate, marked and severe as compared to untreated controls.

Staphylococcus sp. = experiment: In vitro antibacterial evaluation: minimum inhibitory concentration (MIC), broth dilution method; format: cell-based; details: for MIC Staphylococcus haemolyticus (GC 4546): strain GC 4546
Summary of the method: (§1)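 First, organisms are seeded at 5×10^5 CFU/mL into Muller-Hinton II […]. Next, antibiotic is applied across 64-0.06 μg/mL by broth dilution (NCCLS M7-A2). Finally, the lowest inhibitory concentration is recorded as MIC.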

Streptococcus sp. = experiment: as above; format: cell-based
Summary of the method: as §1

Escherichia coli = experiment: as above; format: cell-based
Summary of the method: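 Broth dilution per NCCLS M7-A2 in Muller-Hinton II […], inoculum 5×10^5 CFU/mL, antibiotic tested over 64-0.06 μg/mL. MIC is taken as the lowest concentration that inhibits growth. Panel includes recent clinical isolates resistant to methicillin, penicillin and/or vancomycin.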

Enterococcus sp. = experiment: as above; format: cell-based
Summary of the method: as §1

[3] = broth dilution, 18 hours at 35° C.

## CN=C1N(C)CC(CC2NC(=O)C(Cc3ccc(OC4OC(CO)C(OC5OC(CO)C(O)C(O)C5O)C(O)C4O)cc3)NC(=O)C(C(C)c3ccccc3)NC(=O)CNC(=O)C(CO)NC(=O)C(CC3CN(C)C(=NC)N3C3OC(CO)C(O)C(O)C3O)NC2=O)N1C (stereo not shown) [Example 74]
[1]
  median effective dose (ED50), Staphylococcus aureus-SMITH (GC 4543): >8
[2]
  Anatomical Pathology (Day 10), Heart: 0
  Anatomical Pathology (Day 10), Kidney: 0

## CN=C1N(C)CC(C(O)C2NC(=O)C(Cc3ccc(OC4OC(CO)C(OC5OC6COC7(OC6C(O)C5O)C5CC6CC(C5)CC7C6)C(O)C4O)cc3)NC(=O)C(C(C)c3ccccc3)NC(=O)CNC(=O)C(CO)NC(=O)C(C(O)C3CN(C)C(=NC)N3C3OC(CO)C(O)C(O)C3O)NC2=O)N1C (stereo not shown) [Example 81]
[1]
  median effective dose (ED50), Staphylococcus aureus-SMITH (GC 4543): >8
Staphylococcus sp.; [3]
  MIC Coagulase Negative Staphylococcus (GC 4547): >128 mg/L
  MIC Coagulase Negative Staphylococcus (GC 4548): >128 mg/L
  MIC Coagulase Negative Staphylococcus (GC 4549): >128 mg/L
  MIC Coagulase Negative Staphylococcus (GC 4551): >128 mg/L
  MIC Coagulase Negative Staphylococcus (GC 6257): >128 mg/L
  MIC Staphylococcus aureus (ATCC 29213): >128 mg/L
  MIC Staphylococcus aureus (GC 1131): >128 mg/L
  MIC Staphylococcus aureus (GC 3051): >128 mg/L
  MIC Staphylococcus aureus (GC 3053): >128 mg/L
  MIC Staphylococcus aureus (GC 4541): >128 mg/L
  MIC Staphylococcus aureus (GC 4542): >128 mg/L
  MIC Staphylococcus aureus (GC 4544): >128 mg/L
  MIC Staphylococcus aureus (GC 4545): >128 mg/L
  MIC Staphylococcus aureus SMITH (GC 4543): >128 mg/L
[2]
  Anatomical Pathology (Day 10), Heart: 0
  Anatomical Pathology (Day 10), Kidney: 0

## Tri-N-[(phenylmethoxy)carbonyl]-cyclo[glycyl-β-methylphenylalanyltyrosyl-3-(2-iminoimidazolidin-4-yl)seryl-3-(3-hexopyranosyl-2-iminoimidazolidin-4-yl)serylseryl] [Example 89]
[1]
  median effective dose (ED50), Staphylococcus aureus-SMITH (GC 4543): >8
Staphylococcus sp.; [3]
  MIC Staphylococcus aureus (ATCC 29213): 64 mg/L
  MIC Staphylococcus aureus (GC 1131): 64 mg/L
  MIC Staphylococcus aureus (GC 3051): 64 mg/L
  MIC Staphylococcus aureus (GC 3053): 64 mg/L
  MIC Staphylococcus aureus (GC 4541): 64 mg/L
  MIC Staphylococcus aureus (GC 4542): 64 mg/L
  MIC Staphylococcus aureus (GC 4544): 64 mg/L
  MIC Staphylococcus aureus (GC 4545): 64 mg/L
  MIC Staphylococcus haemolyticus (GC 4546): 32 mg/L
Staphylococcus sp.; strain ATCC 29213, broth dilution, 18 hours at 35° C.
  MIC Staphylococcus aureus (ATCC 29213): 64 mg/L
Staphylococcus sp.; strain GC 1131, broth dilution, 18 hours at 35° C.
  MIC Staphylococcus aureus (GC 1131): 64 mg/L
Staphylococcus sp.; strain GC 3051, broth dilution, 18 hours at 35° C.
  MIC Staphylococcus aureus (GC 3051): 64 mg/L
Staphylococcus sp.; strain GC 3053, broth dilution, 18 hours at 35° C.
  MIC Staphylococcus aureus (GC 3053): 64 mg/L
Staphylococcus sp.; strain GC 4541, broth dilution, 18 hours at 35° C.
  MIC Staphylococcus aureus (GC 4541): 64 mg/L
Staphylococcus sp.; strain GC 4542, broth dilution, 18 hours at 35° C.
  MIC Staphylococcus aureus (GC 4542): 64 mg/L
Staphylococcus sp.; strain GC 4543, 18 hours at 35° C.
  MIC Staphylococcus aureus-SMITH (GC 4543): 64 mg/L
Staphylococcus sp.; strain GC 4544, broth dilution, 18 hours at 35° C.
  MIC Staphylococcus aureus (GC 4544): 64 mg/L
Staphylococcus sp.; strain GC 4545, broth dilution, 18 hours at 35° C.
  MIC Staphylococcus aureus (GC 4545): 64 mg/L
Staphylococcus sp.
  MIC Staphylococcus haemolyticus (GC 4546): 32 mg/L
Staphylococcus sp.; strain GC 4547
  MIC Coagulase Negative Staphylococcus (GC 4547): 32 mg/L
Staphylococcus sp.; strain GC 4547, broth dilution, 18 hours at 35° C.
  MIC Coagulase Negative Staphylococcus (GC 4547): 32 mg/L
Staphylococcus sp.; strain GC 4548
  MIC Coagulase Negative Staphylococcus (GC 4548): 64 mg/L
Staphylococcus sp.; strain GC 4548, broth dilution, 18 hours at 35° C.
  MIC Coagulase Negative Staphylococcus (GC 4548): 64 mg/L
Staphylococcus sp.; strain GC 4549
  MIC Coagulase Negative Staphylococcus (GC 4549): 64 mg/L
Staphylococcus sp.; strain GC 4549, broth dilution, 18 hours at 35° C.
  MIC Coagulase Negative Staphylococcus (GC 4549): 64 mg/L
Staphylococcus sp.; strain GC 4551
  MIC Coagulase Negative Staphylococcus (GC 4551): 64 mg/L
Staphylococcus sp.; strain GC 4551, broth dilution, 18 hours at 35° C.
  MIC Coagulase Negative Staphylococcus (GC 4551): 64 mg/L
Staphylococcus sp.; strain GC 6257
  MIC Coagulase Negative Staphylococcus (GC 6257): 32 mg/L
Staphylococcus sp.; strain GC 6257, broth dilution, 18 hours at 35° C.
  MIC Coagulase Negative Staphylococcus (GC 6257): 32 mg/L
Staphylococcus sp.; strain SMITH GC 4543, broth dilution, 18 hours at 35° C.
  MIC Staphylococcus aureus-SMITH (GC 4543): 64 mg/L
Streptococcus sp.; Streptococcus agalactiae (GC 4564), broth dilution, 18 hours at 35° C.
  MIC Streptococcus agalactiae (GC 4564): 32 mg/L
Streptococcus sp.; Streptococcus pneumoniae (ATCC 6301), broth dilution, 18 hours at 35° C.
  MIC Streptococcus pneumoniae (ATCC 6301): 16 mg/L
Streptococcus sp.; Streptococcus pneumoniae (GC 1894), broth dilution, 18 hours at 35° C.
  MIC Streptococcus pneumoniae (GC 1894): 4 mg/L
Streptococcus sp.; Streptococcus pneumoniae (GC 4565), broth dilution, 18 hours at 35° C.
  MIC Streptococcus pneumoniae (GC 4565): 8 mg/L
Streptococcus sp.; Streptococcus pyogenes (GC 4563), broth dilution, 18 hours at 35° C.
  MIC Streptococcus pyogenes (GC 4563): 32 mg/L
Streptococcus sp.; strain ATCC 6301
  MIC Streptococcus pneumoniae (ATCC 6301): 16 mg/L
Streptococcus sp.; strain GC 1894
  MIC Streptococcus pneumoniae (GC 1894): 4 mg/L
Streptococcus sp.; strain GC 4563
  MIC Streptococcus pyogenes (GC 4563): 32 mg/L
Streptococcus sp.; strain GC 4564
  MIC Streptococcus agalactiae (GC 4564): 32 mg/L
Streptococcus sp.; strain GC 4565
  MIC Streptococcus pneumoniae (GC 4565): 8 mg/L
Escherichia coli; strain ATCC 25922
  MIC Escherichia coli (ATCC 25922): >64 mg/L
Escherichia coli; strain GC 4559
  MIC Escherichia coli (GC 4559): >64 mg/L
Escherichia coli; strain GC 4560
  MIC Escherichia coli (GC 4560): 32 mg/L
Enterococcus sp.; Enterococcus avium (GC 4558), broth dilution, 18 hours at 35° C.
  MIC Enterococcus avium (GC 4558): 32 mg/L
Enterococcus sp.; Enterococcus faecalis (ATCC 29212), broth dilution, 18 hours at 35° C.
  MIC Enterococcus faecalis (ATCC 29212): 64 mg/L
Enterococcus sp.; Enterococcus faecalis (GC 2242), broth dilution, 18 hours at 35° C.
  MIC Enterococcus faecalis (GC 2242): 64 mg/L
Enterococcus sp.; Enterococcus faecalis (GC 2691), broth dilution, 18 hours at 35° C.
  MIC Enterococcus faecalis (GC 2691): 64 mg/L
Enterococcus sp.; Enterococcus faecalis (GC 3059), broth dilution, 18 hours at 35° C.
  MIC Enterococcus faecalis (GC 3059): 64 mg/L
Enterococcus sp.; Enterococcus faecalis (GC 4552), broth dilution, 18 hours at 35° C.
  MIC Enterococcus faecalis (GC 4552): 64 mg/L
Enterococcus sp.; Enterococcus faecalis (GC 4553), broth dilution, 18 hours at 35° C.
  MIC Enterococcus faecalis (GC 4553): 64 mg/L
Enterococcus sp.; Enterococcus faecalis (GC 4554), broth dilution, 18 hours at 35° C.
  MIC Enterococcus faecalis (GC 4554): 64 mg/L
Enterococcus sp.; Enterococcus faecalis (GC 6189), broth dilution, 18 hours at 35° C.
  MIC Enterococcus faecalis (GC 6189): 64 mg/L
Enterococcus sp.; Enterococcus faecium (GC 2243), broth dilution, 18 hours at 35° C.
  MIC Enterococcus faecium (GC 2243): 64 mg/L
Enterococcus sp.; Enterococcus faecium (GC 4556), broth dilution, 18 hours at 35° C.
  MIC Enterococcus faecium (GC 4556): 64 mg/L
Enterococcus sp.; Enterococcus faecium (GC 4557), broth dilution, 18 hours at 35° C.
  MIC Enterococcus faecium (GC 4557): 32 mg/L
Enterococcus sp.; strain ATCC 29212
  MIC Enterococcus faecalis (ATCC 29212): 64 mg/L
Enterococcus sp.; strain GC 2242
  MIC Enterococcus faecalis (GC 2242): 64 mg/L
Enterococcus sp.; strain GC 2243
  MIC Enterococcus faecium (GC 2243): 64 mg/L
Enterococcus sp.; strain GC 2691
  MIC Enterococcus faecalis (GC 2691): 64 mg/L
Enterococcus sp.; strain GC 3059
  MIC Enterococcus faecalis (GC 3059): 64 mg/L
Enterococcus sp.; strain GC 4552
  MIC Enterococcus faecalis (GC 4552): 64 mg/L
Enterococcus sp.; strain GC 4553
  MIC Enterococcus faecalis (GC 4553): 64 mg/L
Enterococcus sp.; strain GC 4554
  MIC Enterococcus faecalis (GC 4554): 64 mg/L
Enterococcus sp.; strain GC 4556
  MIC Enterococcus faecium (GC 4556): 64 mg/L
Enterococcus sp.; strain GC 4557
  MIC Enterococcus faecium (GC 4557): 32 mg/L
Enterococcus sp.; strain GC 4558
  MIC Enterococcus avium (GC 4558): 32 mg/L
Enterococcus sp.; strain GC 6189
  MIC Enterococcus faecalis (GC 6189): 64 mg/L
